For the data set the following is noted: for aqueous solubility: pH 6.8.

Values after ≈ are worked out from the molar mass of the structure shown.

Usually aqueous solubility stands for the concentration that dissolves in the medium under given conditions. Read a high aqueous solubility as much dissolved substance. Turning to `CCOC(=O)N1CCN(C(=O)Nc2cccc3c2CCCC3)CC1`, the MDR1-MDCK efflux ratio was 1.68; the intrinsic clearance, human liver microsomes stood at 37.6 mL/min/kg; the intrinsic clearance, rat liver microsomes worked out at 394 mL/min/kg; the aqueous solubility stood at 51.6 µg/mL (≈ 156 µM).
With `Cc1cccc([C@H]2CN(C(=O)C3CCCC3)[C@@H]3CCN(CC4CC4)C[C@H]23)c1`, the MDR1-MDCK efflux ratio amounted to 1.86; the intrinsic clearance, human liver microsomes turned out to be 555 mL/min/kg; the intrinsic clearance, rat liver microsomes was 2330 mL/min/kg.
Consider `COC(=O)c1cc(F)c(C)c(NC(=O)CCCc2ccccn2)c1`, for which the MDR1-MDCK efflux ratio worked out at 0.785; the intrinsic clearance, human liver microsomes stood at 795 mL/min/kg; the intrinsic clearance, rat liver microsomes was 1680 mL/min/kg; the aqueous solubility turned out to be 43 µg/mL (≈ 130 µM).
The compound `CC(=O)N1CCCN(Cc2ccc(C(=O)N3CCCC3)cc2)c2ccccc21` returned an intrinsic clearance, human liver microsomes of 227 mL/min/kg and an intrinsic clearance, rat liver microsomes of 327 mL/min/kg.
Regarding `N#Cc1cccc(NCc2ccc(-c3cccnc3)o2)c1`, the intrinsic clearance, human liver microsomes is 91.5 mL/min/kg and the intrinsic clearance, rat liver microsomes came out at 416 mL/min/kg.
With `CCOCC(=O)Nc1cccc(CN2CCCC2)c1`, the MDR1-MDCK efflux ratio came to 2.31; the intrinsic clearance, human liver microsomes worked out at 15 mL/min/kg; the intrinsic clearance, rat liver microsomes turned out to be 501 mL/min/kg.
As for `O=C(c1ccc(-c2ccncc2)cc1)N1CCC(F)(F)CC1`, the intrinsic clearance, human liver microsomes was no more than 4.74 mL/min/kg and the intrinsic clearance, rat liver microsomes stood at 43.2 mL/min/kg.
For `Cc1cc(C#N)cc(N2CCc3c(ncn3CCc3ccccc3)C2)n1`, the MDR1-MDCK efflux ratio was determined as 1.22; the intrinsic clearance, human liver microsomes was determined as 975 mL/min/kg; the intrinsic clearance, rat liver microsomes was determined as 3430 mL/min/kg.
In the same order, the values of `O=c1oc2cccnc2n1Cc1ccccn1` are 2.49, no more than 4.74 mL/min/kg and no more than 10.7 mL/min/kg.
For the compound `O=C(Nc1c(F)cccc1Oc1ccccc1)c1cnccn1`, the intrinsic clearance, human liver microsomes amounted to 34.6 mL/min/kg and the intrinsic clearance, rat liver microsomes came out at 1080 mL/min/kg.
Consider `Cc1ccsc1C(=O)NCc1ccc2c(c1)OCCCO2`, for which the MDR1-MDCK efflux ratio was 0.582; the intrinsic clearance, human liver microsomes was found to be 53.1 mL/min/kg; the intrinsic clearance, rat liver microsomes came to 952 mL/min/kg; the aqueous solubility came to 56.9 µg/mL (≈ 187 µM).
In the same order, the values of `O=C(/C=C\n1cnc(-c2cc(C(F)(F)F)cc(C(F)(F)F)c2)n1)NNc1cnccn1` are 1.96, 4.77 mL/min/kg, 14.3 mL/min/kg and 12.5 µg/mL (≈ 28.1 µM).
`O=C1CC(N2CCCN(c3ccc(C(F)(F)F)cn3)CC2)C(=O)N1c1ccccc1` (stereo unspecified): the MDR1-MDCK efflux ratio stood at 0.761; the intrinsic clearance, human liver microsomes is 270 mL/min/kg; the intrinsic clearance, rat liver microsomes stood at 1280 mL/min/kg.
As for `Cn1c(-c2ccc(F)cc2)cnc1NC(=O)CCC(=O)N1CC(=O)Nc2ccccc21`, the MDR1-MDCK efflux ratio came to 48.2; the intrinsic clearance, human liver microsomes was 40.5 mL/min/kg; the intrinsic clearance, rat liver microsomes turned out to be 322 mL/min/kg; the aqueous solubility worked out at 61.3 µg/mL (≈ 145 µM).
`O=c1sn(-c2cccc3ccccc23)c(=O)n1Cc1ccccc1` came in with an aqueous solubility of 0.4 µg/mL (≈ 1.2 µM).
Regarding `CC(C)N(C(=O)Cn1cccc2cc(C(F)F)nc1-2)C(C)C`, the MDR1-MDCK efflux ratio is 4.05; the intrinsic clearance, human liver microsomes came out at 285 mL/min/kg; the intrinsic clearance, rat liver microsomes came to 436 mL/min/kg.
In the same order, the values of `O=c1c2sccc2nc2n1CCN(Cc1ccc(F)cc1F)CC2` are 0.519, 57.9 mL/min/kg and 1460 mL/min/kg.
As for `CCc1c(C(=O)NCCc2ccc(N3CCCCC3)cc2)[nH]c2ccc(Cl)cc12`, the MDR1-MDCK efflux ratio was 0.577; the intrinsic clearance, human liver microsomes amounted to 40.5 mL/min/kg; the intrinsic clearance, rat liver microsomes was 484 mL/min/kg.
The like results for `O=C(O)c1cnn(-c2nc3cc(Cl)c(OC(F)(F)F)cc3[nH]2)c1` were, in that order, 1.05, no more than 4.74 mL/min/kg and no more than 10.7 mL/min/kg.
In the case of `Cc1ccc(NC(=O)CN2CCCC(c3nc4ccccc4o3)C2)cc1C` (stereo unspecified), the MDR1-MDCK efflux ratio was 1.08; the intrinsic clearance, human liver microsomes turned out to be 216 mL/min/kg; the intrinsic clearance, rat liver microsomes was found to be 2610 mL/min/kg; the aqueous solubility came to 10 µg/mL (≈ 27.5 µM).
Compound `Cc1ccc(OCC(=O)Nc2ccncc2)c(C)c1` returned an intrinsic clearance, human liver microsomes of 52.5 mL/min/kg; an intrinsic clearance, rat liver microsomes of 508 mL/min/kg; an aqueous solubility of 47.1 µg/mL (≈ 184 µM).
The like results for `CCS(=O)(=O)CC(=O)Nc1cc(C)ccc1C` were, in that order, no more than 4.74 mL/min/kg, no more than 10.7 mL/min/kg and 40.4 µg/mL (≈ 158 µM).
With `CNCc1cc(N(C)C)nc(C2CCCN2C(=O)C2CN(Cc3ccc(Cl)cc3)C2)n1` (stereo unspecified), the MDR1-MDCK efflux ratio came out at 46.8; the intrinsic clearance, human liver microsomes stood at 8.66 mL/min/kg; the intrinsic clearance, rat liver microsomes stood at 28.4 mL/min/kg.
In the same order, the values of `COc1ccc(OC)c(Cn2cnc3cn(C)nc3c2=O)c1` are 2.56, no more than 4.74 mL/min/kg and 50.8 mL/min/kg.
The like results for `Cc1ccc(CCNc2ccc(C#N)nc2)cn1` were, in that order, 0.552, no more than 4.74 mL/min/kg and 45.1 mL/min/kg.
In the same order, the values of `C#Cc1cccc(N(CCC(=O)NC(N)=O)Cc2cccs2)c1` are 1.88, 51.4 mL/min/kg and 1070 mL/min/kg.
In the case of `CON(C)C(=O)c1cccc2c(C)c(C)[nH]c12`, the MDR1-MDCK efflux ratio stood at 0.476; the intrinsic clearance, human liver microsomes amounted to 113 mL/min/kg; the intrinsic clearance, rat liver microsomes was 196 mL/min/kg; the aqueous solubility amounted to 31.5 µg/mL (≈ 136 µM).
As for `O=C1CN(c2ccc(Nc3nccc(C(F)(F)F)n3)cn2)CCN1`, the MDR1-MDCK efflux ratio came out at 2.94; the fraction unbound, human plasma came out at 0.35; the fraction unbound, rat plasma is 0.271; the intrinsic clearance, human liver microsomes was no more than 4.74 mL/min/kg. The intrinsic clearance, rat liver microsomes was determined as 24.4 mL/min/kg and the aqueous solubility is 51.3 µg/mL (≈ 152 µM).
As to `Cc1noc(NCc2cccc(-c3cccnc3)c2)n1`, the MDR1-MDCK efflux ratio amounted to 0.752; the intrinsic clearance, human liver microsomes is 20.5 mL/min/kg; the intrinsic clearance, rat liver microsomes worked out at 157 mL/min/kg; the aqueous solubility amounted to 34.6 µg/mL (≈ 130 µM).
In the same order, the values of `Cc1ccc2oc([C@H]3CCN(Cc4cccs4)C3)nc2c1` are 0.391, 127 mL/min/kg, 2000 mL/min/kg and 26.3 µg/mL (≈ 88.1 µM).
For the compound `Fc1ccc(-c2cc(C3CCNCC3)ccn2)cc1`, the intrinsic clearance, human liver microsomes is no more than 4.74 mL/min/kg; the intrinsic clearance, rat liver microsomes was no more than 10.7 mL/min/kg; the aqueous solubility was 41 µg/mL (≈ 160 µM).
The like results for `O=C1CSc2ccc(C(=O)Nc3cc(C4CC4)n[nH]3)cc2N1` were, in that order, 8.23 mL/min/kg, 241 mL/min/kg and 4.31 µg/mL (≈ 13.7 µM).
As to `CC(C)(C)NC(=O)NCCn1nc2c(cc1=O)CCCC2`, the MDR1-MDCK efflux ratio worked out at 67; the intrinsic clearance, human liver microsomes worked out at 12.1 mL/min/kg; the intrinsic clearance, rat liver microsomes stood at 105 mL/min/kg; the aqueous solubility was found to be 47.5 µg/mL (≈ 162 µM).
Consider `CC(C)N(C)S(=O)(=O)N1CCC(CNC(=O)CCCn2cccn2)CC1`, for which the MDR1-MDCK efflux ratio came to 57.9; the intrinsic clearance, human liver microsomes was 16.3 mL/min/kg; the intrinsic clearance, rat liver microsomes was 285 mL/min/kg.
With `O=C(O)CCn1c2ccccc2c2ccccc21`, the MDR1-MDCK efflux ratio is 0.809; the intrinsic clearance, human liver microsomes is no more than 4.74 mL/min/kg; the intrinsic clearance, rat liver microsomes turned out to be 11.4 mL/min/kg; the aqueous solubility turned out to be 52 µg/mL (≈ 217 µM).
`O=C(c1ccc(-c2ccncc2)cc1)N1CCC(O)(CN2CCCC2)CC1`: the MDR1-MDCK efflux ratio turned out to be 17.7; the intrinsic clearance, human liver microsomes is no more than 4.74 mL/min/kg; the intrinsic clearance, rat liver microsomes amounted to 76 mL/min/kg.
In turn, `Cc1ccc(-c2nnc(SCCn3cccn3)[nH]2)cc1` returned an intrinsic clearance, human liver microsomes of 96.9 mL/min/kg; an intrinsic clearance, rat liver microsomes of 302 mL/min/kg; an aqueous solubility of 21.8 µg/mL (≈ 76.4 µM).
`CCNC1=N[C@@H]2[C@@H](O)[C@@H](O)[C@H](CO)O[C@@H]2S1` displayed an intrinsic clearance, human liver microsomes of no more than 4.74 mL/min/kg and an intrinsic clearance, rat liver microsomes of no more than 10.7 mL/min/kg.
For the compound `COc1ccc2nc(C(=O)Nc3cnc4c(cnn4C(C)C)c3)ccc2c1`, the MDR1-MDCK efflux ratio came to 0.464 and the aqueous solubility is 0.15 µg/mL (≈ 0.415 µM).
With `c1cc(-c2noc(CN3CCOCC3)n2)ccn1`, the MDR1-MDCK efflux ratio turned out to be 0.732; the intrinsic clearance, human liver microsomes was no more than 4.74 mL/min/kg; the intrinsic clearance, rat liver microsomes is 29.8 mL/min/kg.
In the case of `CCc1nc2ccc(C(=O)NCc3ccccc3)cc2nc1CC`, the intrinsic clearance, human liver microsomes stood at 101 mL/min/kg; the intrinsic clearance, rat liver microsomes is 943 mL/min/kg; the aqueous solubility stood at 2.15 µg/mL (≈ 6.73 µM).
For the compound `CN(CC1(CO)CCCC1)C(=O)CCN1CCCCC1=O`, the MDR1-MDCK efflux ratio amounted to 21.2; the intrinsic clearance, human liver microsomes is no more than 4.74 mL/min/kg; the intrinsic clearance, rat liver microsomes is 113 mL/min/kg.
For `Cn1ncc2c(Oc3cccc(Oc4ccccn4)c3)ncnc21`, the MDR1-MDCK efflux ratio is 0.672; the intrinsic clearance, human liver microsomes stood at 10.1 mL/min/kg; the intrinsic clearance, rat liver microsomes is 369 mL/min/kg; the aqueous solubility amounted to 39.8 µg/mL (≈ 125 µM).
In the same order, the values of `CC(=O)N1CCN(CCNC(=O)N2CCc3sccc3C2)CC1` are 30.4, 10.1 mL/min/kg, 74.2 mL/min/kg and 55.8 µg/mL (≈ 166 µM).
Turning to `CCOCCNC(=O)c1cccc(-c2cc(F)ccc2OC)c1`, the MDR1-MDCK efflux ratio stood at 0.525; the intrinsic clearance, human liver microsomes stood at 130 mL/min/kg; the intrinsic clearance, rat liver microsomes is 819 mL/min/kg.
For the compound `CN(C(=O)c1cncc(F)c1)c1cccc2ncccc12`, the MDR1-MDCK efflux ratio worked out at 2.74; the intrinsic clearance, human liver microsomes was determined as 22.2 mL/min/kg; the intrinsic clearance, rat liver microsomes was 134 mL/min/kg; the aqueous solubility worked out at 61.8 µg/mL (≈ 220 µM).
The like results for `O=C(NCc1ccc(CO)c(F)c1)Nc1ccccc1` were, in that order, 0.427, no more than 4.74 mL/min/kg, 20.8 mL/min/kg and 35.2 µg/mL (≈ 128 µM).

For the origin of these results see the Biogen ADME set (Fang et al. 2023).
